Laboratory results as given in US4032534A, “Certain 2-(2-thioethyl)thiazolidine-4-carboxylic acids” (Ferlus-Chimie S.A., priority 1973, dated 1977).

Experiments:
[1] = tested on: phenylbenzoquinone-induced stretching or twisting movements (writhing syndrome); assay: Siegmund test (analgesic action; phenylbenzoquinone writhing syndrome); format: in vivo; conditions: mouse, 300 mg/kg PO, 30 minutes before phenylbenzoquinone, protected = less than five stretching movements in 5 minutes
Description: Reference: […], E. A.: CADMUS, R. A.: GOLU: "A Method for evaluating both non-narcotic and narcotic Analgesics." Pro. Soc. Exp. Biol., 1957, b, 95, 729-731.
Principle: Injection of an irritant, phenylbenzoquinone (in 0.02% solution), into the peritoneum of a mouse, determination of the stretching or twisting movements (writhing syndrome), whose frequency is diminished by the preventive administration of analgesic.
The substances were given orally 30 minutes before injection of the irritant. The number of stretching movements between the 5th and 10th minute after injection of phenylbenzoquinone were counted. The percentage of animals protected was calculated. A mouse was considered protected if it executed less than five stretching movements in 5 minutes.

in vivo = conditions: mouse, po
[2] = tested on: femoral arterial pressure and cardiac contractile force; assay: Cardiovascular action in a dog anaesthetised with chloralose; format: in vivo
Description: This action was studied in a dog, anaesthetised with chloralose, its reflexogenic, cardioaortic and sinocarotidian zones being intact (normotense dog), or denervated (hypertense dog). The product to be tested was injected in the saphena vein, and the femoral arterial pressure and cardiac contractile force were recorded.

mouse = conditions: for DL 50: per os, species not given
[3] = Mucolytic action: measurement of the fluidising action of the bronchial secretion (microviscosimeter of the BROOKFIELD type); conditions: for Percentage diminution of viscosity: 37° C.
Description: Mucolytic action: measurement of the fluidising action of the bronchial secretion.
The study of the viscosity of an expectoration is effected in vitro. In order to measure viscosity, a microviscosimeter of the BROOKFIELD type is used. With the aid of this apparatus, the resistant couple exerted on a rotor is determined. This rotor, submerged in the liquid whose viscosity is to be measured, rotates at a known constant speed.
1.5 ml of secretion, taken to ambient temperature, was poured into a container of the viscosimeter. After 4 minutes, the temperature of the expectoration was balanced at 37° C., then the motor of the apparatus was started for 5 minutes, after which measurement was effected.
Three rotor speeds were used:
1.5 r.p.m.; 3 r.p.m., and 6 r.p.m.
The three speeds were used for each test. Firstly, the viscosity of the pure expectoration was measured, then that of the expectoration to which had been added one drop of distilled water as a solvent, and whose retained values were later used as witness values, or placebo values.
Thereafter, 1.5 ml of secretion had added to it a drop of the product at the first aqueous concentration envisaged.
The viscosity was measured at the three rotary speeds of the rotor. The same operation was repeated at the following concentrations; 1 mg/ml; 2 mg/ml and 5 mg/ml.
The reference substance was mercapto-ethane sulfonate of sodium or MISTABRON (M.E.S. Na). This substance had been studied under the same experimental conditions at a concentration of 200 mg/ml.

## O=C(O)CSCCC1NC(C(=O)O)CS1 (stereo not shown) [Compound No. 4, 4-carboxy-thiazolidinyl-2-ethyl mercapto acetic acid]
[1]; 300 mg/kg
  % of animals protected: 40%
In vivo
  LD50: > 1200 mg/kg

## O=C(O)CSCCC1NC(C(=O)O)CS1 (stereo not shown) [Compound No. 5, 4-carboxy thiazolidinyl 2-ethyl mercapto acetate of di(diisopropylamine)]
[1]; 300 mg/kg
  % of animals protected: 20%
[2]; intravenous, 10 mg/kg
  antihypertensive and hypotensive action (in words): antihypertensive and hypotensive
mouse
  Acute Toxicity mouse PO: > 1200 mg/kg
  DL 50: > 1200 mg/kg

## CCOC(=O)CSCCC1NC(C(=O)O)CS1 (stereo not shown) [Compound No. 8, 2-[(Ethoxycarbonylmethylthio)-ethyl] thiazolidine 4-carboxylate of diisopropylamine]
[3]; 1 mg/ml, rotor speed V = 1.5 r.p.m.
  Percentage diminution of viscosity: 58%
[3]; 1 mg/ml, rotor speed V = 3 r.p.m.
  Percentage diminution of viscosity: 55%
[3]; 1 mg/ml, rotor speed V = 6 r.p.m.
  Percentage diminution of viscosity: 46%
[3]; 2 mg/ml, rotor speed V = 1.5 r.p.m.
  Percentage diminution of viscosity: 60%
[3]; 2 mg/ml, rotor speed V = 3 r.p.m.
  Percentage diminution of viscosity: 57%
[3]; 2 mg/ml, rotor speed V = 6 r.p.m.
  Percentage diminution of viscosity: 47.5%
[3]; 5 mg/ml, rotor speed V = 1.5 r.p.m.
  Percentage diminution of viscosity: 71%
[3]; 5 mg/ml, rotor speed V = 3 r.p.m.
  Percentage diminution of viscosity: 62%
[3]; 5 mg/ml, rotor speed V = 6 r.p.m.
  Percentage diminution of viscosity: 58%
[3]; in accordance with the doses used (1, 2, 5 mg/ml vs 200 mg/ml M.E.S. Na)
  mucolytic action versus reference M.E.S. Na (in words): comparable with and even superior to the reference substance

## O=C(O)C1CSC(CCSCc2nc3ccccc3[nH]2)N1 (stereo not shown) [Compound No. 10, 2-[2-(benzimidazolylmethyl)-2-thioethyl]-thiazolidine 4-carboxylic acid]
[2]; saphena vein injection, 20 mg/kg
  cardiostimulant properties (in words): clear cardiostimulant properties
mouse
  DL 50: > 1200 mg/kg

## O=S(=O)(O)CCS [M.E.S. Na, mercapto-ethane sulfonate of sodium, reference compound]
[3]; 200 mg/ml, rotor speed V = 1.5 r.p.m.
  Percentage diminution of viscosity: 66%
[3]; 200 mg/ml, rotor speed V = 3 r.p.m.
  Percentage diminution of viscosity: 65%
[3]; 200 mg/ml, rotor speed V = 6 r.p.m.
  Percentage diminution of viscosity: 55%

## O=C(O)CSCCC1NC(C(=O)O)CS1 (stereo not shown) [compound 6, 4-carboxy thiazolidinyl 2-ethyl mercapto arginine acetate]
[1]; acetate, 300 mg/kg
  % of animals protected: 20%
mouse
  Acute Toxicity mouse PO: > 1200 mg/kg

## O=C(O)C1CSC(CCSc2nc3ncccc3o2)N1 (stereo not shown) [compound 11, 2-(2-pyridoxazolyl-2-thioethyl)thiazolidine 4-carboxylic acid]
[1]
  % of animals protected: 20%
In vivo
  LD50: > 1200 mg/kg
